Data: ChEMBL document CHEMBL1201862, “PubChem BioAssay data set” (2004)
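Five compound concentrations were applied to cells in 96-well plates for 48 hours; endpoints were derived by simple linear interpolation of the resulting dose-response curve. GI50 is the concentration that inhibits growth by half.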 The source made the active and inactive calls. No stated cut-off is given here; in the data, active = GI50 up to about 1.1 µM and inactive = higher.

Experiments:
Test in all cases: DTP human tumour cell line panel, 48 h
EKVX = tested on: EKVX
BT-549 = tested on: BT-549
SK-OV-3 = tested on: SK-OV-3
HCT-15 = tested on: HCT-15
DU-145 = tested on: DU-145
786-0 = tested on: 786-0
RXF 393 = tested on: RXF 393
NCI/ADR-RES = tested on: NCI/ADR-RES
NCI-H226 = tested on: NCI-H226
HOP-92 = tested on: HOP-92
OVCAR-8 = tested on: OVCAR-8
A498 = tested on: A498
UACC-257 = tested on: UACC-257
U-251 = tested on: U-251
Hs-578T = tested on: Hs-578T
RPMI-8226 = tested on: RPMI-8226
MDA-N = tested on: MDA-N
HT-29 = tested on: HT-29
MCF7 = tested on: MCF7

| SMILES | GI50 (EKVX) | GI50 (BT-549) | GI50 (SK-OV-3) | GI50 (HCT-15) | GI50 (DU-145) | GI50 (786-0) | GI50 (RXF 393) | GI50 (NCI/ADR-RES) | GI50 (NCI-H226) | GI50 (HOP-92) | GI50 (OVCAR-8) | GI50 (A498) | GI50 (UACC-257) | GI50 (U-251) | GI50 (Hs-578T) | GI50 (RPMI-8226) | GI50 (MDA-N) | GI50 (HT-29) | GI50 (MCF7) |
| --- | --- | --- | --- | --- | --- | --- | --- | --- | --- | --- | --- | --- | --- | --- | --- | --- | --- | --- | --- |
| COc1nc(N)nc2c1n(C)c[n+]2C | > 100 µM (inactive) | > 100 µM (inactive) | > 100 µM (inactive) | > 100 µM | > 100 µM (inactive) | > 100 µM (inactive) | > 100 µM (inactive) | > 100 µM (inactive) | > 100 µM (inactive) | > 100 µM (inactive) | > 100 µM (inactive) | > 100 µM (inactive) | > 100 µM (inactive) | > 100 µM (inactive) | > 100 µM (inactive) | > 100 µM (inactive) | > 100 µM (inactive) | > 100 µM (inactive) | – |
| NCCCC[C@H](N)C(=O)Nc1ccc(-c2nc3ccccc3s2)cc1 | 10.1 µM (inactive) | 28.6 µM (inactive) | 21.1 µM (inactive) | 17.4 µM | 21.7 µM (inactive) | 18.1 µM (inactive) | 33.2 µM (inactive) | 21.6 µM (inactive) | 25.6 µM (inactive) | 34.7 µM (inactive) | 19.8 µM (inactive) | 22.1 µM (inactive) | 70 µM (inactive) | 14.3 µM (inactive) | 23.1 µM (inactive) | – | 15.7 µM (inactive) | 16.5 µM (inactive) | – |
| CC(C)C1C(=O)N2CCCC2C2(O)OC(NC(=O)C3C=C4c5cccc6[nH]cc(c56)CC4N(C)C3)(C(C)C)C(=O)N12 (stereo not drawn) | 19.5 µM (inactive) | 25.4 µM (inactive) | – | 20.5 µM | 35.4 µM (inactive) | 17.9 µM (inactive) | – | 21.1 µM (inactive) | – | 14.2 µM (inactive) | 19.2 µM (inactive) | – | 28.7 µM (inactive) | 26.4 µM (inactive) | 22.5 µM (inactive) | 16.2 µM (inactive) | 25 µM (inactive) | 18 µM (inactive) | 35.8 µM (inactive) |
| O=S(=O)(/N=S(/Nc1ccccc1)C(Cl)Cl)c1ccccc1 (stereo not drawn) | > 100 µM (inactive) | > 100 µM (inactive) | > 100 µM (inactive) | > 100 µM | > 100 µM (inactive) | > 100 µM (inactive) | > 100 µM (inactive) | > 100 µM (inactive) | > 100 µM (inactive) | > 100 µM (inactive) | > 100 µM (inactive) | – | > 100 µM (inactive) | > 100 µM (inactive) | > 100 µM (inactive) | > 100 µM (inactive) | > 100 µM (inactive) | > 100 µM (inactive) | > 100 µM (inactive) |
| COC(CNC(=O)C(C)NC(=O)CCc1ccccc1)OC (stereo not drawn) | > 100 µM (inactive) | > 100 µM (inactive) | > 100 µM (inactive) | > 100 µM | > 100 µM (inactive) | > 100 µM (inactive) | > 100 µM (inactive) | > 100 µM (inactive) | > 100 µM (inactive) | > 100 µM (inactive) | > 100 µM (inactive) | – | > 100 µM (inactive) | > 100 µM (inactive) | > 100 µM (inactive) | > 100 µM (inactive) | > 100 µM (inactive) | > 100 µM (inactive) | > 100 µM (inactive) |
| Nc1ccn(C2CCC(COP(=O)(O)OCC(O)COP(=O)(O)OCC3OC(n4cc(F)c(=O)[nH]c4=O)CC3O)O2)c(=O)n1 (stereo not drawn) | > 75.9 µM (inactive) | 3.09 µM (inactive) | 59.2 µM (inactive) | 14.4 µM | 0.165 µM (active) | > 76.4 µM (inactive) | 3.33 µM (inactive) | 0.215 µM (active) | > 100 µM (inactive) | 0.0419 µM (active) | 0.157 µM (active) | – | > 100 µM (inactive) | 1.04 µM (active) | 1.96 µM (inactive) | 10.4 µM (inactive) | 8.34 µM (inactive) | 2.79 µM (inactive) | < 0.01 µM (active) |
| COCN1C(=O)[C@@H]2CCCN2C(=O)c2cc(N)ccc21 | > 100 µM (inactive) | > 100 µM (inactive) | > 100 µM (inactive) | > 100 µM | > 100 µM (inactive) | > 100 µM (inactive) | > 100 µM (inactive) | > 100 µM (inactive) | – | – | > 100 µM (inactive) | > 100 µM (inactive) | > 100 µM (inactive) | > 100 µM (inactive) | > 100 µM (inactive) | – | > 100 µM (inactive) | > 100 µM (inactive) | > 100 µM (inactive) |
| CCN1C(=O)C(=C/C=C/c2ccc(OC)cc2)C(=O)N(CC)C1=S | 24 µM (inactive) | 26.7 µM (inactive) | 23.1 µM (inactive) | 17.5 µM | 19.1 µM (inactive) | 17.6 µM (inactive) | 17.2 µM (inactive) | 13.8 µM (inactive) | 32.9 µM (inactive) | 14.2 µM (inactive) | 21.4 µM (inactive) | – | 16 µM (inactive) | 18.9 µM (inactive) | 15.7 µM (inactive) | 33.6 µM (inactive) | 18.2 µM (inactive) | 22.6 µM (inactive) | 33.8 µM (inactive) |
